Earlier results in US20050004010A1, “Cobalamin conjugates useful as imaging agents and as antitumor agents” (Mayo Foundation For Medical Education, priority 1999, published 2005).

Details: L isomer versus D isomer

For `COc1cccc2c1C(=O)c1c(O)c3c(c(O)c1C2=O)C[C@@](O)(C(C)=O)C[C@@H]3O[C@H]1C[C@H](NC(=O)[C@@H](N)CC(C)C)C(O)[C@H](C)O1` (stereo partly drawn) [N-(L-leucyl) daunorubicin], the “hydrolysis in vivo to regenerate daunorubicin” value is given as “hydrolyzed in vivo to regenerate daunorubicin”.
